Measurements taken from US11319344B2, “Non-membrane disruptive P53 activating stapled peptides” (AGENCY FOR SCIENCE, TECHNOLOGY AND RESEARCH, priority 2015, dated 2022).
Where two headings read alike, the source gives them in different places.

Tests used:
[1] = system: p53 transcriptional activity in T22 cells; test: T22 p53 β-galactosidase based reporter assay; format: cell-based, murine; details: for IC50: T22 p53 reporter assay, 18 h
Protocol: The YS-01/04 peptides were screened in a murine T22-derived p53 reporter assay, either with or without fetal calf serum, to assess their ability to induce p53 transcriptional activity in intact cells (Table 1 and FIG. 3).
(§1) T22 cells, which were stably transfected with a p53 responsive β-galactosidase reporter, were seeded into 96-well plate at a cell density of 8000 cells per well. Cells were also maintained in Dulbecco's Minimal Eagle Medium (DMEM) with 10% fetal bovine serum (FBS) and penicillin/streptomycin. […] Measurements were carried out using a Safire II multiplate reader. Experiments were carried out independently twice.

[2] = system: T22 cells; test: Lactate dehydrogenase release assay, T22 cells; format: cell-based; details: 2 h, serum free
Protocol: (§2) The stapled YS-01/04 peptides were also screened for their ability to perturb the cell membrane wall of T22 and ARN8 cells and release cytosolic lactate dehydrogenase (LDH). An effect that is regarded as undesirable as this may indicate that the peptide is non-specifically toxic to different cell types. A short 2 hour time treatment period is used for this assay as it is assumed that perforation of the cell membrane occurs […] for cell programmed death. […] The lactate dehydrogenase leakage measured was much greater in ARN8 cells than T22 cells, showing that different cells vary in their sensitivities to the membrane disruptive properties of YS-03. […] This implies that p53 activation, which is also supported by the data for YS-04, does occur in the absence of membrane disruption and that the biological activity observed for is not a direct consequence of cellular toxicity.
(§3) T22 cells or ARN8 cells, both of which were stably transfected with a p53 responsive β-galactosidase reporter, were seeded into a 96-well plate at a cell density of 5000 cells per well. Cells were also maintained in Dulbecco's Minimal Eagle Medium (DMEM) with 10% fetal bovine serum (FBS) and penicillin/streptomycin. The cells were incubated for 24 hours and then treated with compounds/peptide for 2 hours in DMEM with or without 10% FBS. Cytosolic lactate dehydrogenase release was detected using the non-radioactive cytotoxicity Assay kit (Promega) as per manufacturer's instructions. Measurements were carried out using an Envision multiplate reader.

[3] = system: ARN8 cells; test: Lactate dehydrogenase release assay, ARN8 cells; format: cell-based; details: 2 h, serum free
Protocol: as §2, §3

[4] = system: p53 transcriptional activity in ARN8 cells; test: ARN8 β-galactosidase based p53 reporter assay; format: cell-based, Human; details: serum free, 18 h
Protocol: ARN8 cells contain the same β-galactosidase gene under the control of a p53 promoter that is stably transfected into T22 cells. […] The YS-07 and YS-09 titrations were again repeated and the lactate dehydrogenase leakage from ARN8 cells measured instead (FIGS. 8c and 8d).
as §1, with “ARN8” for “T22”

[5] = system: p53 and Mdm2 protein levels in T22 cells; test: T22 western blot analysis of p53 and Mdm2 protein levels; format: cell-based, Murine; details: 25 μM and 50 μM, 18 h, with or without fetal calf serum
Description: The YS-01/04 peptides were screened in a murine T22-derived p53 reporter assay, either with or without fetal calf serum, to assess their ability to induce p53 transcriptional activity in intact cells (Table 1 and FIG. 3). […] Considering the similar affinities that these peptides have for Mdm2, the difference in their IC50 values must reflect a change in their ability to enter the cell. This difference is observed for both sets of peptides (YS-01 and YS-02, YS-03 and YS-04, FIG. 3), which implies that the hydroxyl group of the C-terminal Y30 is responsible for the reduced efficiency of intracellular uptake. p53 and Mdm2 protein levels were then directly probed using western blot analysis. T22 cells were treated with 25 μM and 50 μM of YS-03 either with or without the presence of fetal calf serum (FIG. 4).
T22 Murine cells were seeded into 12 well plates at a cell density of 150000 cells per well and incubated overnight. Cells were also maintained in DMEM media with 10% fetal bovine serum (FBS) and penicillin/streptomycin. Cells were treated with various compounds/vehicle controls at the time points and concentrations indicated either in DMEM media with or without 10% FBS. Cells were rinsed with PBS and then harvested in 50 μl of 1×NuPAGE LDS sample buffer (NP0008). […] Protein concentrations were measured by BCA assay. […]

[6] = Circular dichroism spectroscopy (helicity in solution); format: physicochemical; details: peptide unbound in solution
[7] = target: N-terminal domain of Mdm2 (1-125) (Homo sapiens, UniProt Q00987); test: Competitive fluorescence anisotropy titration (apparent Kd); details: ratio to YS-01/YS-02 Kd
Protocol: In this assay, a N-terminally FAM labelled peptide of the sequence [sequence]
The cells expressing the Mdm2 GST fusion construct were grown in LB medium at 37° C. to an OD600 of ˜0.6 and induction was carried out with 1 mM isopropyl β-D-1-thiogalactopyranoside (IPTG) at room temperature. Cells were harvested by centrifugation and the cell pellets were resuspended in 50 mM Tris pH 8.0, 10% sucrose and then sonicated. The sonicated sample was centrifuged for 60 minutes at 17,000 g at 4° C. […] The column was then further washed by 6 volumes of wash buffer. Mdm2 were then purified from the column by cleavage with PreScission protease. 10 units of PreScission protease, in one column volume of PBS with 1 mM DTT buffer, were injected onto the column. The cleavage reaction was allowed to proceed overnight at 4° C. The cleaved protein was then eluted of the column with wash buffer. Protein fractions were analysed with SDS-PAGE and concentrated using a Centricon (3.5 kDa molecular weight cut-off (MWCO)) concentrator. The Mdm2 protein sample was then dialyzed into a buffer solution containing 20 mM Bis-Tris, pH 6.5, 0.05M NaCl with 1 mM DTT and loaded onto a monoS column pre-equilibrated in buffer A (20 mM Bis-Tris, pH 6.5, 1 mM DTT). The column was then washed in 6 column volumes of buffer A and bound protein was eluted with a linear gradient of 1M NaCl over 25 column volumes. Protein fractions were analysed with sodium dodecyl sulfate-polyacrylamide gel electrophoresis (SDS-PAGE) and concentrated using a Centricon (3.5 kDa molecular weight cut-off (MWCO)) concentrator.
Apparent dissociation constant (Kd) values were determined for a variety of molecules via competitive fluorescence anisotropy experiments. […] The competing molecules were then titrated against the complex of the FAM labelled peptide and protein. Apparent dissociation constant (Kd) values were determined by fitting the experimental data to the equations shown below:
[L]st and [L]t denote labelled ligand and total unlabelled ligand input concentrations, respectively. Kd2 is the dissociation constant of the interaction between the unlabelled ligand and the protein. In all competitive types of experiments, it is assumed that [P]t>[L]st, otherwise considerable amounts of free labelled ligand would always be present and would interfere with measurements. […] The FAM-labelled peptide was dissolved in dimethyl sulfoxide (DMSO) at 1 mM and diluted into experimental buffer. Readings were carried out with a Envision Multilabel Reader. […] All titrations were carried out in triplicate. Curve-fitting was carried out using Prism 4.0 (GraphPad). […]

[8] = absence of serum, read-out: T22 IC50 (0% μM)
[9] = presence of 10% fetal calf serum, read-out: T22 Ic50 (10% μM)

Chain of N-terminal domain of Mdm2 (1-125) (Q00987 1-125): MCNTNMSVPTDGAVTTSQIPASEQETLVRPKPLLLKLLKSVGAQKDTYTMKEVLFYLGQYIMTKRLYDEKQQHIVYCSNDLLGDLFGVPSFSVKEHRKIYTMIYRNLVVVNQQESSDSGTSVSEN

Compound | IC50 [1, 8] [µM] | IC50 [1, 9] [µM] | cytosolic lactate dehydrogenase (LDH) release [2] | cytosolic lactate dehydrogenase (LDH) release [3] | p53 activation (β-galactosidase activity) in ARN8 cells [4] | ability to induce p53 activity in T22 reporter assay ([1]; with and without serum) | p53 and Mdm2 protein levels (western blot) [5] | helicity in solution (CD spectra) [6] | Kd weaker than the i,i+4 analogue peptides (YS-01 and YS-02) [7]
CC(=O)N[C@H](C(=O)N[C@@H](CO)C(=O)N[C@@H](Cc1ccccc1)C(=O)N[C@]1(C)CCCCCCC=CCCC[C@@](C)(C(N)=O)NC(=O)[C@H](CC(C)C)NC(=O)[C@H](CC(C)C)NC(=O)[C@H](C)NC(=O)[C@H](Cc2c[nH]c3ccccc23)NC(=O)[C@H](Cc2ccc(O)cc2)NC(=O)[C@H](CCC(=O)O)NC1=O)[C@@H](C)O [sMTide-02, Ac-TSFX8EYWALLS5-NH2, reference compound] | 2.75 | 17.9 | significant amounts of lactate dehydrogenase leakage | large amounts of lactate dehydrogenase leakage | poorly induces p53 activity |  |  |  | 
CC(=O)N[C@H](C(=O)N[C@@H](CO)C(=O)N[C@@H](Cc1ccccc1)C(=O)NC1(C)CCCCCCC=CCCCC(C)(C(=O)N[C@@H](CCC(=O)O)C(=O)N[C@@H](CC(N)=O)C(=O)N[C@@H](Cc2ccccc2)C(N)=O)NC(=O)[C@H](CC(C)C)NC(=O)[C@H](CC(C)C)NC(=O)[C@H](C)NC(=O)[C@H](Cc2c[nH]c3ccccc23)NC(=O)[C@H](Cc2ccc(O)cc2)NC(=O)[C@H](CCC(=O)O)NC1=O)[C@@H](C)O (some centres unmarked) [YS-03, Ac-^17TSFX8EYWALLS5ENF^30-NH2] | 4.57 | 54.7 |  |  |  | greater potency in the T22 assay than YS-01 and YS-02 | induction of p53 and Mdm2 protein levels | significantly more helical in character in solution than YS-01 and YS-02 | approximately 2 fold
